Values after ≈ are worked out from the molar mass of the structure shown. Values joined by “and” are separate entries in the source; they are usually repeats but may differ in a detail not shown here. Identical values can stand only once. “Also recorded” adds a separate entry of the source. Like-named read-outs stand apart in the source and are kept apart here.
Experiments:
MDCK cells = conditions: dog
influenza A virus [1] = conditions: for cell viability rate: dog
influenza A virus [2] = assay: microbe, parasite or virus in culture; conditions: MDCK, 48 h, read-out: Cell survival rate
[3] = system: IL-6, IFN-β and TNF-α levels; format: cell-based, canine
[4] = system: TLR4, TLR7, MyD88 and NF-κB p65 protein expression; design: species or system ICR mice; conditions: mouse, in vivo
influenza A virus [5] = assay: Viral load assay using real-time RT-PCR (M1 gene) and CPE in infected MDCK cells; format: cell-based, influenza virus A/PR8/34 (H1N1); conditions: for virus load vs oseltamivir group: LMEP 31.25 μg/ml, LEP […], DPEP […]
[6] = system: influenza A virus (A PR/8/34); assay: Lung index of influenza A virus-infected mice; format: in vivo, ICR mice
Procedure: (§1) A total of 108 ICR mice were randomly divided into the control uninfected group, the control infected group, oseltamivir group, LEP-treated groups and DPEP-treated groups; 12 mice were designed in each group. Except for the mice in the control uninfected group, others were anaesthetized with ethyl ether and intranasally infected with 10LD50 influenza A virus (A PR/8/34) in a volume of 50 μl PBS to induce viral pneumonia. […] Meanwhile, the control uninfected group and the control infected group were only given saline with the same volume. […] The adult daily dose was converted into the high dose of mice, which was about 40 mg/kg. Based on the high dose of the drug, the medium and low doses were set.
(§2) In the 3rd and 7th days after infection, to monitor the histological changes in influenza A virus-infected animals, six mice were sacrificed randomly in each group, and lung, spleen and thymus tissues were obtained and weighed after being washed with saline solution. Lung index and the inhibition ratio of the lung index were calculated as our previous report, while spleen and thymus indexes were calculated based on the following formulas ([Ling et al., 2017]).

[7] = system: IL-1β, IL-6 and IL-10 in serum; format: in vivo, ICR mice; conditions: 3rd and 7th day after infection
Procedure: as §1
In days 3 and 7 post-infection, blood samples of six mice from each group were collected from retroorbital sinus under mild ethyl ether anesthesia before they were sacrificed, then under 4 °C they were centrifuged at 3000 rpm for 20 min to obtain serum. The levels of IL-1β, IL-6 and IL-10 in murine serum were determined by ELISA kits.

[8] = system: influenza A virus (A PR/8/34); assay: Spleen and thymus indexes of infected mice; format: in vivo, ICR mice
Procedure: as §1, §2
Spleen index = (spleen weight/body weight)×100%;
Thymus index = (thymus weight/body weight)×100%;

influenza A virus [9] = assay: Antiviral activity assay in vitro with four ways of drug delivery (MTT, MDCK cells); format: cell-based, influenza virus A/PR8/34 (H1N1); conditions: for EC50: Influenza A virus, MDCK
[10] = system: TLRs signaling pathway mRNA; format: cell-based, canine
[11] = 24 and 48 h after administration

With `O=C1C[C@@H](c2ccc(O[C@@H]3O[C@H](CO)[C@@H](O)[C@H](O)[C@H]3O)cc2)Oc2cc(O)ccc21` [LIQ, liquiritin] the TC0 (MDCK cells; 48 h) was 250.00 µg/mL, the TC50 (MDCK cells; 48 h) was 680.77 µg/mL (≈ 1630 µM) and the “effect on the cell viability after virus infection (in words)” value (shortened to “effect on the cell viability”) (influenza A virus [1]) was “little antiviral effect”. It also gave a viability at 7.81 µg/mL (influenza A virus [2]) of 26.6%, a viability at 31.25 µg/mL (influenza A virus [2]) of 28.4% and a viability at 125 µg/mL (influenza A virus [2]) of 32.2%. For the same compound, the viability at 250 µg/mL (influenza A virus [2]) was 33.7% and the viability at […] (influenza A virus [2]) was 26.9% and 28%.

For `CCOC(=O)C1=C[C@@H](OC(CC)CC)[C@H](NC(C)=O)[C@@H](N)C1` [Oseltamivir, reference compound], the “IL-6 level in cell supernatant vs control infected group” value [3] was “significantly higher than that in the control infected group”, the TC0 (MDCK cells; 48 h) was 100.00 µg/mL and the TC50 (MDCK cells; 48 h) was 500.00 µg/mL (≈ 1600 µM). The “protein expression levels of MyD88 and NF-κB p65 in lung tissue” value [4] was “significantly down-regulated”, the “protein expression levels of TLR4 and TLR7 in lung tissue” value [4] was “Decreased” and the “CPE of infected MDCK cells” value (influenza A virus [5]; [11]) was “significantly reduce the CPE”. The “Inhibition ratio of lung index” value ([6]; Day 3, 22 mg/kg by gavage) was 41.27%, the Lung index ([6]; Day 3, 22 mg/kg by gavage) was 0.74 ± 0.03 and the “Inhibition ratio of lung index” value ([6]; Day 7, 22 mg/kg by gavage) was 38.86%. For the same compound, the Lung index ([6]; Day 7, 22 mg/kg by gavage) was 1.18 ± 0.11, the IL-10 in serum ([7]; P < 0.01) was “accelerated the production of IL-10” and the IL-1β in serum ([7]; P < 0.01 or P < 0.05) was “dramatically inhibited the production of IL-1β”. The IL-6 in serum ([7]; P > 0.05) was “slightly increased”, the viability at 10 µg/mL (influenza A virus [2]) was 82.7% and the spleen index ([8]; Day 3, 22 mg/kg) was 0.51 ± 0.13. It also gave a thymus index ([8]; Day 3, 22 mg/kg) of 0.45 ± 0.05, a spleen index ([8]; Day 7, 22 mg/kg) of 0.49 ± 0.08 and a thymus index ([8]; Day 7, 22 mg/kg) of 0.38 ± 0.03.

In the case of `C[C@@H]([C@H](O)c1ccccc1)N(C)C` [LMEP, L-methylephedrin], the “IL-6 level in cell supernatant vs control infected group” value [3] is reported as “significantly higher than that in the control infected group”, the “level of IFN-β in cell supernatant vs control infected group” value [3] is reported as “significantly increase; also recorded: increased” and the “secretion of TNF-α vs control infected group” value [3] is reported as “significantly inhibited the secretion of TNF-α”. The TC0 (MDCK cells) was 31.25 µg/mL, the TC50 (MDCK cells) was 216.77 µg/mL (≈ 1210 µM) and the “cells' survival rate” value (MDCK cells) was “higher than 90%”. The “antiviral effective rate (ER)” value (influenza A virus [9]; 31.25 μg/ml (highest concentration), post-treatment host cells after virus infection) was 63.52% and 64.16%, the “antiviral effective rate (ER)” value (influenza A virus [9]; 31.25 μg/ml, limited treatment of 1 hour during virus infection) was 60.58% and the “antiviral effective rate (ER)” value (influenza A virus [9]; 31.25 μg/ml, pre-treatment host cells prior to virus infection) was 56.94%. For the same compound, the “antiviral effective rate (ER)” value (influenza A virus [9]; 31.25 μg/ml, pre-treatment of virus with drug) was 61.48%, the EC50 (influenza A virus [9]; drug delivery way: Blocking viruses invading host cells) was 20.4 µg/mL (≈ 114 µM) and the EC50 (influenza A virus [9]; drug delivery way: Directly inhibiting virus) was 7.55 µg/mL (≈ 42.1 µM). For the same compound, the EC50 (influenza A virus [9]; drug delivery way: Inhibiting the biosynthesis of virus) was 6.65 µg/mL (≈ 37.1 µM), the EC50 (influenza A virus [9]; drug delivery way: Intervening the adsorption of virus) was 7.85 µg/mL (≈ 43.8 µM) and the “antiviral effective rate (ER)” value (influenza A virus [9]; final concentration 3.91 μg/ml) was “more than 34.00%”. For the same compound, the “CPE of infected MDCK cells” value (influenza A virus [5]; [11]) was “significantly reduce the CPE”, the “virus load vs oseltamivir group” value (influenza A virus [5]; 24 h treatment, P < 0.05) was “significantly lower than that of oseltamivir group” and the “virus load vs oseltamivir group” value (influenza A virus [5]; 48 h treatment) was “no difference”. The “viral load in MDCK cells vs control infected group” value (influenza A virus [5]; each dose group, 24 and 48 h after administration, P < 0.01 or P < 0.05) was “significantly decreased”, the cell viability rate (influenza A virus [1]) was ≥ 70% and the “mRNA expression levels of TLR7, NF-κB p65, TLR3 and IRF3” value [10] was “significantly reduced”. For the same compound, the “mRNA expression of IFN-β” value [10] was “significantly increased”, the “mRNA expression of TLR4” value [10] was “significant decreased” and the “mRNA expression of TLR4, MyD88 and TRAF3” value [10] was “significantly reduced”. The “mRNA expression of TRAF3” value [10] was “significantly reduced”, the viability at 0.98 µg/mL (influenza A virus [2]) was 57.3% and the viability at 1.95 µg/mL (influenza A virus [2]) was 63.2%. For the same compound, the viability at 3.91 µg/mL (influenza A virus [2]) was 66.6%, the viability at 7.81 µg/mL (influenza A virus [2]) was 70.3% and the viability at 31.25 µg/mL (influenza A virus [2]) was 77.8%. The viability at […] (influenza A virus [2]) was 75.1%.

With `O=C(O)/C=C/c1ccccc1` [CMA, cinnamic acid] the “effect on the cell viability” value (influenza A virus [1]) was “little antiviral effect”, the viability at 1.95 µg/mL (influenza A virus [2]) was 27.7% and the viability at 3.91 µg/mL (influenza A virus [2]) was 27.9%. For the same compound, the viability at 7.81 µg/mL (influenza A virus [2]) was 30.9%, the viability at 31.25 µg/mL (influenza A virus [2]) was 33.5% and the viability at […] (influenza A virus [2]) was 34.8%.

`CC1(C)[C@@H](O[C@H]2O[C@H](C(=O)O)[C@@H](O)[C@H](O)[C@H]2O[C@@H]2O[C@H](C(=O)O)[C@@H](O)[C@H](O)[C@H]2O)CC[C@]2(C)[C@H]3C(=O)C=C4[C@@H]5C[C@@](C)(C(=O)O)CC[C@]5(C)CC[C@@]4(C)[C@]3(C)CC[C@@H]12` [GA, glycyrrhizic acid] was tested, and the TC0 (MDCK cells; 48 h) was 125.00 µg/mL, the TC50 (MDCK cells; 48 h) was 663.74 µg/mL (≈ 807 µM) and the “effect on the cell viability” value (influenza A virus [1]) was “slightly increase the cell viability rate, but not obviously”. The cell viability rate (influenza A virus [1]) was “about 47%”, the viability at 3.91 µg/mL (influenza A virus [2]) was 31.1% and the viability at 7.81 µg/mL (influenza A virus [2]) was 32.8%. The viability at 31.25 µg/mL (influenza A virus [2]) was 43%, the viability at 125 µg/mL (influenza A virus [2]) was 47.2% and the viability at […] (influenza A virus [2]) was 34.4% and 46%.

With `N#C[C@H](O[C@@H]1O[C@H](CO[C@@H]2O[C@H](CO)[C@@H](O)[C@H](O)[C@H]2O)[C@@H](O)[C@H](O)[C@H]1O)c1ccccc1` [AMY, amygdalin] the TC0 (MDCK cells) was 31.25 µg/mL, the TC50 (MDCK cells) was 563.64 µg/mL (≈ 1230 µM) and the “effect on the cell viability” value (influenza A virus [1]) was “little antiviral effect”. The viability at 0.98 µg/mL (influenza A virus [2]) was 26.2%, the viability at 1.95 µg/mL (influenza A virus [2]) was 27% and the viability at 3.91 µg/mL (influenza A virus [2]) was 29%. For the same compound, the viability at 7.81 µg/mL (influenza A virus [2]) was 27.9%, the viability at 31.25 µg/mL (influenza A virus [2]) was 28.9% and the viability at […] (influenza A virus [2]) was 28.2%.

`OC/C=C/c1ccccc1` [CAO, cinnamic alcohol] was tested, and the TC0 (MDCK cells) was 125.00 µg/mL, the TC50 (MDCK cells) was 390.84 µg/mL (≈ 2910 µM) and the “effect on the cell viability” value (influenza A virus [1]) was “little antiviral effect”. It also gave a viability at 3.91 µg/mL (influenza A virus [2]) of 25%, a viability at 7.81 µg/mL (influenza A virus [2]) of 25.9% and a viability at 31.25 µg/mL (influenza A virus [2]) of 26.4%. The viability at 125 µg/mL (influenza A virus [2]) was 32.6% and the viability at […] (influenza A virus [2]) was 26.7% and 29.9%.
